In patent US20260042762A1 (Kymera Therapeutics, Inc., priority 2018, published 2026) one finds Dmax data, which are given here for eleven compounds.

The test addresses T1, MerTK (Homo sapiens, UniProt Q12866).
T1 construct: endogenous in cells; host or cells: Jurkat cells
T1 sequence (Q12866 21-999): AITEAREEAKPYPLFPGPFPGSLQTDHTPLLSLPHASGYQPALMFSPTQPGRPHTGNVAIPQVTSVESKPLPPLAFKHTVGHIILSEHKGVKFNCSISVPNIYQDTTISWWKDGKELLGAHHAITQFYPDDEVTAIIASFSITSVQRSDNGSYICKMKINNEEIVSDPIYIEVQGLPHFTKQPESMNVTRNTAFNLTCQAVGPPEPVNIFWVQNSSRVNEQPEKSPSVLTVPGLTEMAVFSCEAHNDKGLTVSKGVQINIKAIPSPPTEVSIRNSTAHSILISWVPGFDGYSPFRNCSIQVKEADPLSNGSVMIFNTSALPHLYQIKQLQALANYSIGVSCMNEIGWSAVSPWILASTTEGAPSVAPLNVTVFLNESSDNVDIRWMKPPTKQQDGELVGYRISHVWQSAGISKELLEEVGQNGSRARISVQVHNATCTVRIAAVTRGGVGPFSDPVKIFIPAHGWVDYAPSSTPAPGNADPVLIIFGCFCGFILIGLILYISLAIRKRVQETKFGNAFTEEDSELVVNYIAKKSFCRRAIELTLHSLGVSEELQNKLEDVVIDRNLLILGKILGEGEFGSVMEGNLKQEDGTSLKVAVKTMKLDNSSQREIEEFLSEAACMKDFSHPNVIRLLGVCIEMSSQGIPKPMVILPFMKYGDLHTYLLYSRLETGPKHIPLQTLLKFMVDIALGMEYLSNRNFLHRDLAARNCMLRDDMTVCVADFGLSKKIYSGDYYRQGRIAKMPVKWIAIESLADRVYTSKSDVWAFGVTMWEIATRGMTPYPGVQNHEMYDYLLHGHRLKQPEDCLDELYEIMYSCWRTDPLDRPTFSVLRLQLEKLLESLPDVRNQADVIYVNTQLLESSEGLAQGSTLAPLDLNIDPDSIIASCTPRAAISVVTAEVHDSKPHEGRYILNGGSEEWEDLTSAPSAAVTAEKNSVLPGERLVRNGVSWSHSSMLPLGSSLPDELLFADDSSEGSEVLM
As to the kind of experiment: MerTk degradation in Jurkat cells (Western blot). It counts as cell-based. Particulars: Jurkat, 4 h, 0.001-1 μM, 4 hour-incubation at 37° C., read-out: Jurkat Max % MerTK Degradation. The gist of the method:
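MerTK degradation was read by near-infrared Western blot, normalized to actin, in BCA-quantified lysates of Jurkat cells exposed to 0.001-1 μM compound for 4 h at 37 °C.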
As to `C[C@H](CC(F)(F)F)Nc1ncc2c(-c3ccc(CN4CCN(CCCOCCCc5ccc6c(c5)n(C)c(=O)n6C5CCC(=O)N(C)C5=O)CC4)cc3)cn([C@H]3CC[C@H](O)CC3)c2n1` (stereo partly drawn) [I-224, 1-methyl-3-[3-methyl-2-oxo-5-[3-(3-[4-[(4-[7-[trans-4-hydroxycyclohexy1]-2-[[(2R)-4,4,4-trifluorobutan-2-yl]amino]pyrrolo[2,3-d]pyrimidin-5-yl]phenyl)methyl]piperazin-1-yl]propoxy)propyl]-1,3-benzodiazol-1-yl]piperidine-2,6-dione], the Dmax is under 20%.
With `C[C@@H](CC(F)(F)F)Nc1ncc2c(-c3ccc(CN4CCN(CCCOCCCc5ccc6c(c5)n(C)c(=O)n6C5CCC(=O)N(C)C5=O)CC4)cc3)cn([C@H]3CC[C@H](O)CC3)c2n1` (stereo partly drawn) [I-225, 1-methyl-3-[3-methyl-2-oxo-5-[3-(3-[4-[(4-[7-[trans-4-hydroxycyclohexy1]-2-[[(2S)-4,4,4-trifluorobutan-2-yl]amino]pyrrolo[2,3-d]pyrimidin-5-yl]phenyl)methyl]piperazin-1-yl]propoxy)propyl]-1,3-benzodiazol-1-yl]piperidine-2,6-dione], the Dmax is under 20%.
On to `N[C@H]1CCCC[C@H]1Nc1cc2nc[nH]c(=O)c2c(Nc2cccc3c2ccn3CCOCCOCCOCCOCCNc2cccc3c2C(=O)N(C2CCC(=O)NC2=O)C3=O)n1` (some centres unmarked) [I-227], for which the Dmax was over 50%.
`COc1ccc(Nc2nc(Nc3cc(OCCOCCOCCOCCOCC(=O)N[C@H](C(=O)N4C[C@H](O)C[C@H]4C(=O)NCc4ccc(-c5scnc5C)cc4)C(C)(C)C)c(OC)cc3C)ncc2Cl)c(NS(C)(=O)=O)c1` [I-228]: the Dmax lay in the range of 20 to 50%.
The figure for `Cc1ncsc1-c1ccc(CNC(=O)[C@@H]2C[C@@H](O)CN2C(=O)[C@@H](NC(=O)COCCOCCOCCOCCn2ccc3c(Nc4nc(N[C@@H]5CCCC[C@@H]5N)nnc4C(N)=O)cccc32)C(C)(C)C)cc1` [I-229] is under 20%; for `Cc1ncsc1-c1ccc(CNC(=O)[C@@H]2C[C@@H](O)CN2C(=O)[C@@H](NC(=O)COCCOCCOCCOCCn2ccc3c(Nc4nc(N[C@@H]5CCCC[C@@H]5N)cc5nc[nH]c(=O)c45)cccc32)C(C)(C)C)cc1` [I-230] it is under 20%.
The figure for `COc1ccc(Nc2nc(Nc3cc(OCCOCCOCCOCCOCCNc4cccc5c4C(=O)N(C4CCC(=O)NC4=O)C5=O)c(OC)cc3C)ncc2Cl)c(NS(C)(=O)=O)c1` (centres unmarked) [I-231] is under 20%; for `COc1cc(Nc2nc(N[C@H]3CCCC[C@H]3N)n3ccnc3c2C(N)=O)cc(OCCOCCOCCOCCNc2cccc3c2C(=O)N(C2CCC(=O)NC2=O)C3=O)c1` (some centres unmarked) [I-232] it is under 20%.
The figure for `CCC1CN(c2ccc(-c3ccnc(Nc4cc(OC)c(OC)c(OCCOCCOCCOCCOCC(=O)N[C@H](C(=O)N5C[C@H](O)C[C@H]5C(=O)NCc5ccc(-c6scnc6C)cc5)C(C)(C)C)c4)n3)cn2)CCN1` (some centres unmarked) [I-233] is over 50%.
For the compound `CCC1CN(c2ccc(-c3ccnc(Nc4cc(OC)c(OC)c(OCCOCCOCCOCCOCCNc5cccc6c5C(=O)N(C5CCC(=O)NC5=O)C6=O)c4)n3)cn2)CCN1` (centres unmarked) [I-234], the Dmax is under 20%.
As for `CC(O)c1ccc2c(c1)n(C)c(=O)n2C1CCC(=O)NC1=O` (centres unmarked) [I-236], the figure is over 50%.
